For this experiment, the target named is T1, Angiotensin II Receptor (Bos taurus, UniProt P25104).
T1 construct: The brownish tissue forming the adrenal cortex is scraped off and finely minced with scissors before homogenization; tissue local slaughter house (Maxwell-Cphen); host or cells: beef adrenal cortex, microsomal membranes
T1 sequence (P25104 1-359): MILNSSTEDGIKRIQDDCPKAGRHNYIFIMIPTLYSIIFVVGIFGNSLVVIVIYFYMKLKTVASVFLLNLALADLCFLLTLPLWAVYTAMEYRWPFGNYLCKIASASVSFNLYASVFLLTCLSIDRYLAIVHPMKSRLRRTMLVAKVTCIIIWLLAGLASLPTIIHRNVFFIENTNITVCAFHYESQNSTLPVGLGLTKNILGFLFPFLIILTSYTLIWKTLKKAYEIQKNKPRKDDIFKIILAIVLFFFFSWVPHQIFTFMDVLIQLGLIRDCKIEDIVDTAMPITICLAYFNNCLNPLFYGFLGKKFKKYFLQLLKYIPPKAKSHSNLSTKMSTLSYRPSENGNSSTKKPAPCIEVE
Nature of the experiment: Angiotensin II receptor binding, displacement of [^125 I](Sar^1,Ile^8)AngII from beef adrenal cortex membranes. The conditions noted are these: pH 7.4, 60 min, room temperature, triplicate. The text has this: Beef adrenals are obtained from a local slaughter house (Maxwell-Cphen). [^125 I](Sar^1,Ile^8)AngII, S.A. 2200 Ci/mmole, is purchased from Dupont (NEN®, Boston, Mass.). All unlabeled AngII analogs, Dimethylsulfoxide (DMSO), nucleotides, bovine serum albumin (BSA) are purchased from Sigma Chemical Co., St. Louis, Mo. U.S.A.
Approximately sixteen (16) to twenty (20) beef adrenal glands are processed as follows: fresh adrenal glands received on crushed ice are cleaned of fatty tissues and the tough membranes encapsulating the glands are removed and discarded. The brownish tissue forming the adrenal cortex is scraped off and finely minced with scissors before homogenization. Care is taken to avoid contamination with medullary tissue during dissection. The scraped cortices are suspended in twenty volumes of an ice-cold buffer medium consisting of 10 mM Tris.HCl (pH 7.4 at 22° C.) and containing 1.0 mM EDTA and 0.2 M sucrose. Unless otherwise indicated, all subsequent operations are done at 4° C. […] This P2 pellet is discarded and the liquid phase is carefully decanted off in clean centrifuge tubes and recentrifuged at high speed ([…]) […] the protein content of the preparation is determined by the Lowry's method (Lowry, O. H., Rosebrough, N. F., Farr, A. L. and Randall, R. J., Protein measurement with Folin phenol reagent. J. Biol. Chem., […], 265-275, 1951). […]

By IC50 is commonly meant the concentration needed to halve the response being measured.

Structures are written as SMILES.

Regarding `CCCCc1nc(Cl)c([C@@]2(C)C[C@@H]3CCCN3O2)n1Cc1ccc(-c2ccccc2-c2nn[nH]n2)cc1` (racemic) [Example 8, Cis-(+/-)-2-[2-Butyl-4-chloro-1-[[2'-(1H-tetrazol-5-yl)[1,1'-biphenyl]-4-yl]methyl]-1H-imidazol-5-yl]hexahydro-2-methyl-pyrrolo[1,2-b]isoxazole], the IC50 was 34 nM. In other words, the double-digit nanomolar range.

Values taken from patent US5298517A, “Angiotensin II receptor blocking agents” (American Cyanamid Company, priority 1993, dated 1994).
